Assays:
[1] = tested on: chronic cerebral hypoperfusion model rats (bilateral carotid artery ligation; simulated early AD); assay: Morris water maze orientation navigation experiment in chronic cerebral hypoperfusion model rats; type: in vivo, Sprague Dawley (SD) rats; conditions: for average escape latency in Morris water maze experiment / searching distance in Morris water maze experiment: after 20 consecutive days of administration, CGA 60 mg/kg/d i.p., 3-coumaroylquinic acid alone 0.03 mg/kg/d i.p., sodium oligomannate 100 mg/kg/d gavage, mean±SD, n=10; for escape latency and searching distance of rats compared with the model group (in words): Morris water maze, over the 5-day experiment, versus model group
From the text: (§1) In this experiment, the occurrence of mild AD in humans after chronic cerebral hypoperfusion was simulated by performing bilateral carotid artery ligation in rats, and the intervention of the pharmaceutical composition according to the present invention on the learning and memory ability of these rats was observed, in order to investigate the therapeutic effect of the pharmaceutical composition according to the present invention on early AD.
(§2) 2.1. Experimental Animals: 6-8 Week Old, SPF Grade, Male Sprague Dawley (SD) Healthy Rats, Weighing 280-300 g.
(§3) A chronic cerebral hypoperfusion model was established by bilateral carotid artery ligation. Rats were acclimated to the environment for 1 week, and then fasted for 12 h and water-deprivated for 4 h before surgery. The rats were anesthetized with 0.4% pentobarbital sodium (0.5 mL/100 g i.p.), and fixed in a supine position on the operating table. Hair was removed from the skin in front of the neck. The naked skin was disinfected with iodine, and then the rats were incised in the middle of the neck. The subcutaneous superficial fascia was bluntly separated, and then the sternocleidomastoideole and sternohyoid muscle were carefully separated along both sides of the trachea, with arterial sheath visible; the bilateral common carotid arteries were separated and exposed with a glass needle, to bury the thread, and then double ligated with silk thread. The blood vessels between the two ligation points were cut off. The incision was sutured layer by layer and disinfected, followed by waiting for awakening of rats. During the operation, incandescent lamp irradiation was used to maintain the anal temperature of rats at 36.5° C.-37.5° C. After surgery, each rat was placed in a single cage to prevent suffocation.
(§4) 10 healthy SD rats with suitable body weight (within the required range) were randomly selected as the normal control group. 80 successfully modeled rats were randomly divided into 8 groups, with 10 rats in each group. They were named as follows: model control group (n=10), CGA treatment group (n=10), 3-coumaroylquinic acid treatment group (n=10), CGA+3-coumaroylquinic acid (100:0.01) treatment group (n=10), CGA+3-coumaroylquinic acid (100:0.05) treatment group (n=10), CGA+3-coumaroylquinic acid (100:0.5) treatment group (n=10), CGA+3-coumaroylquinic acid (100:1) treatment group (n=10), sodium oligomannate treatment group (n=10), and thus, there are […], along with the normal control group (n=10), for a total of 90 rats.
In this experiment, except for sodium oligomannate treatment group, which was administered by gavage, all other treatment groups were administered by intraperitoneal injection to each group of rats. The blank group and model group were given the solvent physiological saline by intraperitoneal injection. Rats in each treatment group were administrated one week after modeling surgery. Then, after 20 consecutive days of administration, the experiment was carried out. The administration continued during the experiment. At the same time, both the blank group and the model group were given an equal amount of physiological saline. […]

[2] = tested on: chronic cerebral hypoperfusion model rats (bilateral carotid artery ligation; simulated early AD); assay: Morris water maze space exploration experiment in chronic cerebral hypoperfusion model rats; type: in vivo, Sprague Dawley (SD) rats; conditions: for searching time in the quadrant of the original platform compared with the model group (in words): Morris water maze space exploration, versus model group; for Time spent in the original platform quadrant: platform removed, after the orientation navigation experiment, CGA 60 mg/kg/d i.p., 3-coumaroylquinic acid alone 0.03 mg/kg/d i.p., sodium oligomannate 100 mg/kg/d gavage, mean±SD, n=10
From the text: as §1, §2, §3, §4
In this experiment, except for sodium oligomannate treatment group, which was administered by gavage, all other treatment groups were administered by intraperitoneal injection to each group of rats. […]

Compound: O=C(/C=C/c1ccc(O)c(O)c1)O[C@@H]1C[C@](O)(C(=O)O)C[C@@H](O)[C@H]1O [CGA, 3-O-caffeoylquinic acid]
- average escape latency in Morris water maze experiment ([1]; Day 1): 95.4 ± 15.1 s
- searching distance in Morris water maze experiment ([1]; Day 1): 1125.6 ± 108.4 cm
- average escape latency in Morris water maze experiment ([1]; Day 2): 89.2 ± 17.5 s
- searching distance in Morris water maze experiment ([1]; Day 2): 944.3 ± 102.5 cm
- average escape latency in Morris water maze experiment ([1]; Day 3): 75.6 ± 12.6 s
- searching distance in Morris water maze experiment ([1]; Day 3): 844.8 ± 99.1 cm
- average escape latency in Morris water maze experiment ([1]; Day 4): 70.7 ± 14.5 s
- searching distance in Morris water maze experiment ([1]; Day 4): 560.9 ± 64.2 cm
- average escape latency in Morris water maze experiment ([1]; Day 5): 46.3 ± 10.6 s
- searching distance in Morris water maze experiment ([1]; Day 5): 395.2 ± 42.7 cm
- escape latency and searching distance of rats compared with the model group (in words) [1]: almost no improvement
- searching time in the quadrant of the original platform compared with the model group (in words) [2]: almost no extension
- Time spent in the original platform quadrant [2]: 32.6 ± 8.5 s

Compound: O=C(/C=C/c1ccc(O)cc1)O[C@@H]1C[C@](O)(C(=O)O)C[C@@H](O)[C@H]1O [3-coumaroylquinic acid]
- average escape latency in Morris water maze experiment ([1]; Day 1): 98.1 ± 16.8 s
- searching distance in Morris water maze experiment ([1]; Day 1): 1127.3 ± 117.2 cm
- average escape latency in Morris water maze experiment ([1]; Day 2): 94.2 ± 15.3 s
- searching distance in Morris water maze experiment ([1]; Day 2): 954.5 ± 119.3 cm
- average escape latency in Morris water maze experiment ([1]; Day 3): 81.5 ± 13.7 s
- searching distance in Morris water maze experiment ([1]; Day 3): 892.6 ± 106.2 cm
- average escape latency in Morris water maze experiment ([1]; Day 4): 75.4 ± 16.3 s
- searching distance in Morris water maze experiment ([1]; Day 4): 577.1 ± 72.5 cm
- average escape latency in Morris water maze experiment ([1]; Day 5): 51.8 ± 14.2 s
- searching distance in Morris water maze experiment ([1]; Day 5): 407.1 ± 44.3 cm
- escape latency and searching distance of rats compared with the model group (in words) [1]: almost no improvement
- searching time in the quadrant of the original platform compared with the model group (in words) [2]: almost no extension
- Time spent in the original platform quadrant [2]: 30.2 ± 7.8 s
